The source of these data is patent publication US20180071354A1, “SELECTIVE BREEDING METHOD OF ANTITUMOR/ANTICANCER CAMELLIA SINENSIS STRAIN, AND TEA PRODUCT OF SUCH STRAIN” (FUJIAN AGRICULTURE AND FORESTRY UNIVERSITY, priority 2015, published 2018).

Data set [1] relates to HepG2 cells (human liver cancer cells) transplanted tumor. Briefly: In vivo antitumor testing, first experiment (Animal Model 1). Conditions: 35 days, 5-fluorouracil 15.0 mg/kg per day intra-abdominal injection, Tea Product 1 0.6 mL of 10% per day intragastric gavage. More on the design: species or system BALB/c nude mice. The protocol:
The establishment of Animal Model 1 is addressed as follows. […] SCXK (Hu) 2012-0002) were purchased from Shanghai Silaike Experiment Animal Co., Ltd and were acclimatized for one week. HepG2 cells (human liver cancer cells) mentioned in section C of Example 3 were cultivated in the corresponding complete medium (see Table 3) supplemented with 100 μg/mL penicillin and 100 μg/mL streptomycin in an incubator (37° C., 100% relative humidity, 5% CO2). When adherent cancer/tumor cells reached 97% confluence, the medium was removed. Cell detachment was conducted using trypsin, and the detached cells were transferred to a centrifuge tube. Centrifugation was conducted, and the resulting supernatant was removed. Staining was performed with a 0.4% trypan blue, and it was determined that the cell viability was higher than 97%. A cell suspension having a concentration of […] was prepared using PBS. 0.2 mL of the cell suspension was subcutaneously injected into each of the nude mice at a position posterior to the axilla. […] Tea Product 1 and Conventional Tea Product obtained in section A of Example 3, as well as 5-fluorouracil mentioned in section B of Example 3, were examined for their in vivo antitumor activity. […] In all the three experiments above, each of the nude mice was sacrificed 24 hours after the termination of the treatment. The tumor was collected and weighed. The antitumor effect of a respective test substance was evaluated by virtue of the percent tumor growth inhibition (%), which was calculated using the following Equation II: E=[(F−G)/(F)]×100% (I) • E=percent tumor growth inhibition (%) • F=tumor weight of control group • G=tumor weight of respective test substance group The experimental data are expressed as mean±SEM (standard error of the mean). The experimental data were subjected to one-way analysis of variance (ANOVA) using SPSS (Statistical Package for Social Sciences) software package version 11.5, such that the difference between the groups could be evaluated. The data regarding the tumor weights of the groups were subjected to t-test. […]

The test system of data set [2] is human glioblastoma cell line U-87MG. Kind of data set: In vitro antitumor/anticancer testing (CCK-8), U-87MG. The data set is classed as cell-based. The settings on record: 48 h. As to the method: (§1) Each of Tea Product 1 and Conventional Tea Product obtained in section A of this example was used to prepare test tea samples according to the method described below. A proper amount of the respective tea product was added into sterile water to prepare a stock solution with a concentration of 100 mg/mL, followed by using a membrane filter with a pore size of 0.22 μm to conduct vacuum filtration and sterilization. The resulting stock solution was diluted with a respective complete medium shown in Table 3 below to form test tea samples with different concentrations. In other words, the thus obtained test tea samples to be used for treating a respective cancer/tumor cell line shown in Table 3 were prepared using the same complete medium as that for the respective cancer/tumor cell line. […] Specifically, each of the aforesaid commercially available agents was subjected to the method described below to prepare comparative test samples. A proper amount of a respective commercially available agent was dissolved in phosphate-buffered saline (PBS) to prepare a stock solution with a concentration of 5 mg/mL, followed by using a membrane filter with a pore size of 0.22 μm to conduct vacuum filtration and sterilization. The resulting stock solution was diluted with a respective complete medium shown in Table 3 below to form comparative test samples with different concentrations. To be specific, the comparative test samples prepared from the respective commercially available agent have the concentrations shown in Table 2 below. The thus obtained comparative test samples to be used for treating a respective cancer/tumor cell line shown in Table 3 were prepared using the same complete medium as that for the respective cancer/tumor cell line. […] The cultivation of each cancer/tumor cell line is described as follows. […] Afterwards, a cell suspension having a cell density of 1.0×10^4 cells/mL was prepared. […] As experimental groups, the tumor/cancer cells of each cell line were treated with the test tea samples prepared from one or more of the tea products and the comparative test samples prepared from one or more of the commercially available agents as obtained in section B of this example (for more detailed information about the tea product(s) and the commercially available product (s) used to treat each cell line, please see Table 4 below). To be specific, 6 to 10 test tea samples prepared from the same tea product and having different concentrations, as well as 6 to 10 comparative test samples prepared from the same commercially available agent and having different concentrations, were utilized to treat the tumor/cancer cells of each cell line. For each experimental group, 6 repetitions of tumor/cancer treatment were performed. For the control group, 100 μL of PBS was added to a well containing the medium and the cancer/tumor cells of the respective cell line. For the blank group, 100 μL of PBS was added to a well containing a complete medium the same as that used for cultivation of the cancer/tumor cells of the respective cell line. After the treatment described above, cultivation was conducted in an incubator (37° C., 100% relative humidity, 5% CO2) for 48 hours. Subsequently, the liquid containing the medium and the sample in the well was removed, and a respective complete medium (shown in Table 3 above) containing 10% CCK-8 (Cell Counting Kit-8)(Dojindo Molecular Technologies, Inc., Cat. No. CK04-13) was added. Cultivation was performed in an incubator (37° C.) for 2 to 4 hours, followed by gently shaking.

The nature of data set [3]: In vitro antitumor/anticancer testing (CCK-8), SMMC-7721. The format is cell-based, human. Conditions: SMMC-7721; 48 h. As to the method:
as §1

Data set [4] relates to human ovarian cancer cell line SK-OV-3. Kind of data set: In vitro antitumor/anticancer testing (CCK-8), SK-OV-3. Conditions: 48 h. The format is cell-based. The protocol: as §1
Data set [5] has as its system human cervical cancer cell line Hela. Kind of data set: In vitro antitumor/anticancer testing (CCK-8), Hela. The settings on record: 48 h. The format is cell-based. The protocol:
as §1

Each structure is given as a SMILES string.

Turning to `O=c1[nH]cc(F)c(=O)[nH]1` [5-fluorouracil], in data set [1], the “Body weight After treatment” value was 72.90 g, the “Percent tumor growth inhibition” value is recorded as 80.84% and the Tumor weight amounted to 0.08 g.

As for `O=C(O[C@@H]1Cc2c(O)cc(O)cc2O[C@@H]1c1cc(O)c(O)c(O)c1)c1cc(O)c(O)c(O)c1` [EGCG monomer, epigallocatechin gallate], the Percent growth inhibition was determined as 2.29% in data set [2] (2.5 μg/mL); 2.94% in data set [2] (5 μg/mL); 5.82% in data set [2] (10 μg/mL); 15.72% in data set [2] (20 μg/mL); 15.15% in data set [2] (40 μg/mL); 2.45% in data set [2] (80 μg/mL). Also, the Percent growth inhibition is listed as 82.81% in data set [2] (160 μg/mL); 98.43% in data set [2] (320 μg/mL); 98.03% in data set [2] (640 μg/mL); 2.20% in data set [4] (0.3125 μg/mL); 3.98% in data set [4] (0.625 μg/mL); 3.64% in data set [4] (1.25 μg/mL). In addition, the Percent growth inhibition in data set [4] (2.5 μg/mL) is 5.54%; in data set [4] (5 μg/mL) it was 6.15%; in data set [4] (10 μg/mL) it was 4.47%; in data set [4] (20 μg/mL), 36.88%; in data set [4] (40 μg/mL), 81.73%; in data set [4] (80 μg/mL) it was 99.42%. The Percent growth inhibition in data set [5] (0.3125 μg/mL) was 4.13%; in data set [5] (0.625 μg/mL), −0.68%; in data set [5] (1.25 μg/mL) it was 1.08%; in data set [5] (2.5 μg/mL), −8.94%; in data set [5] (5 μg/mL), −6.50%; in data set [5] (10 μg/mL), −22.63%. Also, the Percent growth inhibition in data set [5] (20 μg/mL) was −20.22%; in data set [5] (40 μg/mL), −23.80%; in data set [5] (80 μg/mL), 36.66%. The IC50 entry in data set [2] (U-87MG) is “IC50 (μg/mL) = 76.85”; in data set [3], “IC50 (μg/mL) = 77.41”; in data set [4] (SK-OV-3), “IC50 (μg/mL) = 24.05”; in data set [5] (Hela), “IC50 (μg/mL) = 101.2”.
